ChEMBL document CHEMBL4507273 (2021)
pKi: −log10 of the molar value.

How the values were obtained:
[1] = biological target: Adenosine Transporter (Cavia porcellus) (UniProt H0V4R7+H0UUG1+H0V3Z5); assay: Inhibition of Transporter, Adenosine at compound concentration of 10.0 uM in the Eurofins-Panlabs radioligand binding assay (Eurofins_assay_202000); format: protein assay; design: ligand concentration 0.5 nM, non-specific ligand with concentration 5 uM Nitrobenzylthioinosine, incubation time 30 min, incubation temperature 25 C; conditions: Compound concentration 10.0 uM
[2] = biological target: Leukocyte tyrosine kinase receptor (Homo sapiens) (UniProt P29376); assay: LTK(h) Eurofins Kinase panel; conditions: Compound concentration 1.0 uM
[3] = biological target: PAS domain-containing serine/threonine-protein kinase (Homo sapiens) (UniProt Q96RG2); assay: PASK(h) Eurofins Kinase panel; conditions: Compound concentration 1.0 uM
[4] = biological target: [Pyruvate dehydrogenase (acetyl-transferring)] kinase isozyme 2, mitochondrial (Homo sapiens) (UniProt Q15119); assay: PDHK2(h) Eurofins Kinase panel; conditions: Compound concentration 1.0 uM
[5] = biological target: Cyclin-dependent kinase 1/cyclin B (Homo sapiens) (UniProt P06493+P14635+Q8WWL7+O95067); assay: CDK1/cyclinB(h) Eurofins Kinase panel; format: protein-complex assay; conditions: Compound concentration 1.0 uM
[6] = biological target: Eukaryotic translation initiation factor 2-alpha kinase 3 (Homo sapiens) (UniProt Q9NZJ5); assay: PEK(h) Eurofins Kinase panel; conditions: Compound concentration 1.0 uM
[7] = biological target: T1, Protein kinase C epsilon type (Homo sapiens) (UniProt Q02156); assay: PKCepsilon(h) Eurofins Kinase panel; conditions: Compound concentration 1.0 uM
T1 sequence (whole entry): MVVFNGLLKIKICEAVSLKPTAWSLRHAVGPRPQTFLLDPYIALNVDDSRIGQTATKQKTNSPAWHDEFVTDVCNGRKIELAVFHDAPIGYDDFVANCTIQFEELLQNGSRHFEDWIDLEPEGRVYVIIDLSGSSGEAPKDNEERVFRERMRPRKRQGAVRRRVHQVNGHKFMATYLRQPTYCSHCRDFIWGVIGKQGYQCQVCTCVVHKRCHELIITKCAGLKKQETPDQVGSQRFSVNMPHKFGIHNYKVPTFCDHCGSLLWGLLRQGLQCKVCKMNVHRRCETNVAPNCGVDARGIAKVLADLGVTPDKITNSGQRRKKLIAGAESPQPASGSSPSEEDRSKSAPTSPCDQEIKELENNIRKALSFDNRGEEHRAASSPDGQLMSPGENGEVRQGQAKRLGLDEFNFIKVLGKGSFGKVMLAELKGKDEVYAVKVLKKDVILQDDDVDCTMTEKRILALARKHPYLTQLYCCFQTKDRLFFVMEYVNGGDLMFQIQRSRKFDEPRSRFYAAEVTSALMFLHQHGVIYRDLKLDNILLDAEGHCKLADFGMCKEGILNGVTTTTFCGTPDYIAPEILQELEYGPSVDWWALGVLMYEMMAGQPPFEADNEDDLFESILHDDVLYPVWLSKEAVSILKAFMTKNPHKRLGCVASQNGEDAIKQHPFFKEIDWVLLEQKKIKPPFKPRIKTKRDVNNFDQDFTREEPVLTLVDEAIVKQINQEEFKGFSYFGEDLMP

[8] = biological target: T2, Alpha-2A adrenergic receptor (Homo sapiens) (UniProt P08913); conditions: Compound concentration 10.0 uM
T2 sequence (whole entry): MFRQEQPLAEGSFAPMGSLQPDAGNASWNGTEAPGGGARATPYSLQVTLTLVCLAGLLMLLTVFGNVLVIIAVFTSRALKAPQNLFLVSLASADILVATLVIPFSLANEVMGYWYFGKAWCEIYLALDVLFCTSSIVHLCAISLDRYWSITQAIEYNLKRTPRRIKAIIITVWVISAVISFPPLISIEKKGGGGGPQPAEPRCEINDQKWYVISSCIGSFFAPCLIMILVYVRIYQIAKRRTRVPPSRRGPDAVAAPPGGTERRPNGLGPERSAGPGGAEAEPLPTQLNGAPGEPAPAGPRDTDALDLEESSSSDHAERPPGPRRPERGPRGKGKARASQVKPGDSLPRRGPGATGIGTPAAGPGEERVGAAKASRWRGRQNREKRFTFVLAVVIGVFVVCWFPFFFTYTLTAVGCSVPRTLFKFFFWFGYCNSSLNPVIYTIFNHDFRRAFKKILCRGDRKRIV

D(2) dopamine receptor = D(2) dopamine receptor (Homo sapiens, UniProt P14416); conditions: Compound concentration 10.0 uM
[9] = biological target: T3, Muscarinic acetylcholine receptor M1 (Homo sapiens) (UniProt P11229); conditions: Compound concentration 10.0 uM
T3 sequence (whole entry): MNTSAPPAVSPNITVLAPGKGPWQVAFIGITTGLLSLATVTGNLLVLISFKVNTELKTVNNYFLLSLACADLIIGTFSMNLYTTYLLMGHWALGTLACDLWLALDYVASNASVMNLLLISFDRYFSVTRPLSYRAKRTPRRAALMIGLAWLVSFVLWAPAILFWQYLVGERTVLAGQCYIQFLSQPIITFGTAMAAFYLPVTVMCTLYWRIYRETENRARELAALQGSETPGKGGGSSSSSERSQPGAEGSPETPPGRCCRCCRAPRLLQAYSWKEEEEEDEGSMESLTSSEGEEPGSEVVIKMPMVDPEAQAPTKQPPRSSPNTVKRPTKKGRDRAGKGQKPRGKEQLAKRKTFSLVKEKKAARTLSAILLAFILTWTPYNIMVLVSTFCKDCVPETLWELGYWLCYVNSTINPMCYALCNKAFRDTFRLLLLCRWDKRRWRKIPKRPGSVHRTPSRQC

[10] = biological target: Sodium-dependent dopamine transporter (Homo sapiens, UniProt Q01959); conditions: Compound concentration 10.0 uM
Rattus norvegicus = species: Rattus norvegicus; conditions: Compound concentration 10.0 uM
[11] = biological target: T4, Alpha-2B adrenergic receptor (Homo sapiens) (UniProt P18089); conditions: Compound concentration 10.0 uM
T4 sequence (whole entry): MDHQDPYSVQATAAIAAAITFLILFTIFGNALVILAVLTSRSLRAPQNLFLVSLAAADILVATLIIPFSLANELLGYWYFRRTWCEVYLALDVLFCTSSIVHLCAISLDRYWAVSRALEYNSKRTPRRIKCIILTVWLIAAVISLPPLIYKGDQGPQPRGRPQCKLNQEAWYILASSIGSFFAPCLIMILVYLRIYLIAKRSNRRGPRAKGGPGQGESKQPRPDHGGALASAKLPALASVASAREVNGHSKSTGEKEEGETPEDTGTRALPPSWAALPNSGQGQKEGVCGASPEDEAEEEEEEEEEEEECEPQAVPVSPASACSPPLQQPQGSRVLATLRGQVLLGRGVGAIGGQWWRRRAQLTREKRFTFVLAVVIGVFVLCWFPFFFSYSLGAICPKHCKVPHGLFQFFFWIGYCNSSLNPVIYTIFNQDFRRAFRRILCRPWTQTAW

Histamine H1 receptor = Histamine H1 receptor (Homo sapiens, UniProt P35367); assay: GPCRScan assay: inhibition of H1; design: radioligand conc. used [nm] 0.6 – 2.0, parental cells stable HEK
Sequence of Histamine H1 receptor (P35367 whole entry): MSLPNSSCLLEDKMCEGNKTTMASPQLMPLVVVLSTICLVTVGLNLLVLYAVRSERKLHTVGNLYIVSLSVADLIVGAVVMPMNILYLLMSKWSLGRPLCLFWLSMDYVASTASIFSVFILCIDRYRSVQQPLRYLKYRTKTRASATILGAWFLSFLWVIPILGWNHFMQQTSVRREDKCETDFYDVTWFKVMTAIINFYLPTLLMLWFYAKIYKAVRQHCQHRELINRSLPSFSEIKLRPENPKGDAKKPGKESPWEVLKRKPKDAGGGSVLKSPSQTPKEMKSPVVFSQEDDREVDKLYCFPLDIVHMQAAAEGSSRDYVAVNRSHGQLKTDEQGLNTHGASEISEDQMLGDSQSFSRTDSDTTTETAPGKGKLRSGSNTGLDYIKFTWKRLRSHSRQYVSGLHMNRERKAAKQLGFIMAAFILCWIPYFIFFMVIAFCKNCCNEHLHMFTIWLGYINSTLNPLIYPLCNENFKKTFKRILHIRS

Sequence of D(2) dopamine receptor (P14416 whole entry): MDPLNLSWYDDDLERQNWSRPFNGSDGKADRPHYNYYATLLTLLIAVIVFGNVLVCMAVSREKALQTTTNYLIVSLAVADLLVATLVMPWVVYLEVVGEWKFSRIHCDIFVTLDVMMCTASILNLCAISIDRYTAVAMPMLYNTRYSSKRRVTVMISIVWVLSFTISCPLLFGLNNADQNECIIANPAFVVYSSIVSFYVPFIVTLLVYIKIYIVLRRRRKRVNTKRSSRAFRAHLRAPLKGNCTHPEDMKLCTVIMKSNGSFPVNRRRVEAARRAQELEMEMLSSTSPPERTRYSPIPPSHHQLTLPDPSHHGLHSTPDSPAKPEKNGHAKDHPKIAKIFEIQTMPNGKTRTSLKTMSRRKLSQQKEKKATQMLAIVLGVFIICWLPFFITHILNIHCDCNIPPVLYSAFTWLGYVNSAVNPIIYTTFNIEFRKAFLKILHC
Sequence of Eukaryotic translation initiation factor 2-alpha kinase 3 (Homo sapiens) (Q9NZJ5 whole entry): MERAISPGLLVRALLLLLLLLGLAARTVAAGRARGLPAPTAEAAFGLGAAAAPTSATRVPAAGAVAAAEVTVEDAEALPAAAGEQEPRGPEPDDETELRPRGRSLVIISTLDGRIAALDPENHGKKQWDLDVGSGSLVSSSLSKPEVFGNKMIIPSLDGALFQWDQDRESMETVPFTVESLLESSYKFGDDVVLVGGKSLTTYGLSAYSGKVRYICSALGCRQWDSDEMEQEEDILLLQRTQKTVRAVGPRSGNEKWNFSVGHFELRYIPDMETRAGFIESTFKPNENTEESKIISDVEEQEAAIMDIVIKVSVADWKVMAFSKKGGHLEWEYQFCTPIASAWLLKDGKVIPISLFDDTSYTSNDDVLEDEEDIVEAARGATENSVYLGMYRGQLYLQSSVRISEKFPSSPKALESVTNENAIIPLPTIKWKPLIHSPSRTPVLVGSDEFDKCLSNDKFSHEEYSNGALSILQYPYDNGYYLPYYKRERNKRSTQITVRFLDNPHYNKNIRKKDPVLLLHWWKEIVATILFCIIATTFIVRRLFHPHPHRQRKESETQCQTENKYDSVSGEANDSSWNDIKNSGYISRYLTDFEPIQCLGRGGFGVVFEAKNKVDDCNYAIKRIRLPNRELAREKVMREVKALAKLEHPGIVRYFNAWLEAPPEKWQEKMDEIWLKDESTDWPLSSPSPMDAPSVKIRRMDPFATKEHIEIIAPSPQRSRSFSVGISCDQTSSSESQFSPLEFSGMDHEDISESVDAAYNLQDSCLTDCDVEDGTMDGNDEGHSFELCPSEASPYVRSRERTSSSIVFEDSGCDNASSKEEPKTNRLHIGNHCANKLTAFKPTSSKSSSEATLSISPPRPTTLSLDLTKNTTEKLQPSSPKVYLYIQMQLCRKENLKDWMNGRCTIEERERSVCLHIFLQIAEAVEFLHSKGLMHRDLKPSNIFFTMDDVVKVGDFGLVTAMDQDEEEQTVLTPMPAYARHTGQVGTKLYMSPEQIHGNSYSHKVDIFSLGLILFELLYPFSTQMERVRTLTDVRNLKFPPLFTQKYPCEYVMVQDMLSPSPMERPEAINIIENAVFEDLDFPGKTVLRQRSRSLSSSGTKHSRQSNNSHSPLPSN
Sequence of Sodium-dependent dopamine transporter (Q01959 whole entry): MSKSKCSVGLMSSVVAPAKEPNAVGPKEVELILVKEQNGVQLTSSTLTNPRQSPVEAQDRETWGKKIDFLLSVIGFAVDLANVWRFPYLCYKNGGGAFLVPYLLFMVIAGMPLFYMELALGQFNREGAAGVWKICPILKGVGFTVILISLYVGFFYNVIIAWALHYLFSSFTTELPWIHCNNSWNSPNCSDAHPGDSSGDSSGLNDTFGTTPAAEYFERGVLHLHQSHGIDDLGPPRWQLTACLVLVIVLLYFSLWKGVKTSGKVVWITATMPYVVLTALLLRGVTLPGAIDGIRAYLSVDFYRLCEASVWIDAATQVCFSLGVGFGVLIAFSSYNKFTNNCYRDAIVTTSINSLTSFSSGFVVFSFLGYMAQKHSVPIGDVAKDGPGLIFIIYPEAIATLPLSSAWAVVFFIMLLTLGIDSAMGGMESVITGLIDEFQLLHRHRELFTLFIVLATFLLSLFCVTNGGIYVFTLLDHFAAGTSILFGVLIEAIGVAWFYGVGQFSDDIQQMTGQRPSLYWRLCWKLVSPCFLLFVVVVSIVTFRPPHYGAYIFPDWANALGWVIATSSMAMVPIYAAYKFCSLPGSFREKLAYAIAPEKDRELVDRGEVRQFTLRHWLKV
Sequence of PAS domain-containing serine/threonine-protein kinase (Homo sapiens) (Q96RG2 whole entry, the tested form may be a part): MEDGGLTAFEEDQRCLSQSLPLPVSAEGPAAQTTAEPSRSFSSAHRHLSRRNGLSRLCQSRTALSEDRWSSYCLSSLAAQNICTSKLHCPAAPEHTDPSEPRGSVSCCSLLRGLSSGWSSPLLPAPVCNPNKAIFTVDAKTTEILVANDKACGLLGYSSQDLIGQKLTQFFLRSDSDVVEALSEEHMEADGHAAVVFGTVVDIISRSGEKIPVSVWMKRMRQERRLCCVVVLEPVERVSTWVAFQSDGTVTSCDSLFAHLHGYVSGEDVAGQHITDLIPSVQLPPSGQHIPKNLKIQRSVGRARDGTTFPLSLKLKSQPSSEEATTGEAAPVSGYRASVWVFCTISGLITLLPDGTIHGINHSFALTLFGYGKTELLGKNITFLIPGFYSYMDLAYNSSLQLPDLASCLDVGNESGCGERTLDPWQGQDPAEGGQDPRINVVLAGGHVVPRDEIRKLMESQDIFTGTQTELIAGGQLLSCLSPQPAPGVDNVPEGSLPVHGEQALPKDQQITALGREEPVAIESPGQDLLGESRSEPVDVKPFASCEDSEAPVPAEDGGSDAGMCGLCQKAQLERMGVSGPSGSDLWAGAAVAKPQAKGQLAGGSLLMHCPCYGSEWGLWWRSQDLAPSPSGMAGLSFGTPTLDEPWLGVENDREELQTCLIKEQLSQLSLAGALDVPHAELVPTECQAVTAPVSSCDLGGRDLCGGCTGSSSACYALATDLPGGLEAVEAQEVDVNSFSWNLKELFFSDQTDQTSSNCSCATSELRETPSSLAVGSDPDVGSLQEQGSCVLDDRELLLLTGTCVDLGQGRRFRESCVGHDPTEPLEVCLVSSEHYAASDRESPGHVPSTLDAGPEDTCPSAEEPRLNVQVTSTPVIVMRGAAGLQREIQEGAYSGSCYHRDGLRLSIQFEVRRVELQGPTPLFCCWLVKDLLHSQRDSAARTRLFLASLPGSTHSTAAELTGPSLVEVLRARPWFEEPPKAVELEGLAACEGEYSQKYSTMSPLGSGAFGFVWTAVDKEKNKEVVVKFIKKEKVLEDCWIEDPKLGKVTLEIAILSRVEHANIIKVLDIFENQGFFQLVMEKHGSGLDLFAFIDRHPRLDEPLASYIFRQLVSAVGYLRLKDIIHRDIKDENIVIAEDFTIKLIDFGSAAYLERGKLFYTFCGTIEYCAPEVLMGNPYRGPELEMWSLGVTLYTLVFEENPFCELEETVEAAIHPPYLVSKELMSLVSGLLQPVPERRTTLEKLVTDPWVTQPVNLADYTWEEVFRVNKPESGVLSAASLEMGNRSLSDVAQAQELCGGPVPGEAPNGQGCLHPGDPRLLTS
Sequence of Leukocyte tyrosine kinase receptor (Homo sapiens) (P29376 whole entry, the tested form may be a part): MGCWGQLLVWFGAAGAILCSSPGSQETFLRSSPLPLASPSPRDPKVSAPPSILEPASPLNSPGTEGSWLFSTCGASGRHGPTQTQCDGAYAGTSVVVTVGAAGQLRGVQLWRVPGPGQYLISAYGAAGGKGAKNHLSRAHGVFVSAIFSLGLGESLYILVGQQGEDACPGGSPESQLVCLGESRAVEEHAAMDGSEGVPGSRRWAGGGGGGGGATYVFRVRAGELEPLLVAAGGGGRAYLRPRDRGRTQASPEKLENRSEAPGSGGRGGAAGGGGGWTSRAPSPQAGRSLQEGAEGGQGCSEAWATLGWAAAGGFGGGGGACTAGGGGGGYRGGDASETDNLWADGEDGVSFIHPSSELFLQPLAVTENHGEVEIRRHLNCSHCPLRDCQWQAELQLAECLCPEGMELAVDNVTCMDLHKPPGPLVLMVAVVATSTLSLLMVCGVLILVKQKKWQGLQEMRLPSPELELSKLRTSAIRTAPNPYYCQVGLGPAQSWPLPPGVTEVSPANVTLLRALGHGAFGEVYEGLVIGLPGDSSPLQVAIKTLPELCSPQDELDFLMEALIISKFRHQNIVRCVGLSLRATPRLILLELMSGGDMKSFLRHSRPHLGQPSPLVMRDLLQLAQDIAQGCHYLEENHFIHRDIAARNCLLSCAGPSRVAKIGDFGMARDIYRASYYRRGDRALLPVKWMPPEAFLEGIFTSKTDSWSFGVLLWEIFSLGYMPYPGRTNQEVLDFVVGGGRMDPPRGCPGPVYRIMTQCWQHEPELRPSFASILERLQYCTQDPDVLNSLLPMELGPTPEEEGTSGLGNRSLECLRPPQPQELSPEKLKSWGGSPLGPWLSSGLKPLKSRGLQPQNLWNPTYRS

Compound | inhibition [1] | % residual kinase activity [2] | % residual kinase activity [3] | % residual kinase activity [4] | % residual kinase activity [5] | % residual kinase activity [6] | % residual kinase activity [7] | inhibition [8] | inhibition (D(2) dopamine receptor) | inhibition [9] | inhibition [10] | inhibition (Rattus norvegicus) | inhibition [11] | pKi (Histamine H1 receptor; read-out: Ki) | Ki (Histamine H1 receptor; read-out: pKi (converted))
CNCc1ccccc1-c1csc([C@@H](C)Nc2nc(C)nc3cc(OC)c(OC)cc23)c1 [BAY-293] | 62% | 75% | 84% | 85% | 87% | 87% | 88% | 99% | 71% | 94% | 90% | 71% | 85% |  | 
CNCc1ccccc1-c1csc([C@H](C)Nc2nc(C)nc3cc(OC)c(OC)cc23)c1 [BAY-294] |  |  |  |  |  |  |  |  |  |  |  |  |  | 5.86 | 1350 nM
